Assay results as given in PubChem BioAssay AID1259407 (Chemical Carcinogenesis Research Information System (CCRIS), 2018).
Active and inactive are the calls of the source. The rule behind the calls is not given here.

Tested on: CCRIS mutagenicity, Ames/micronucleus/aberration tests
Assay: CCRIS mutagenicity studies
[1] = Test System: AMES SALMONELLA TYPHIMURIUM, Strain/Indicator: TA98, Metabolic Activation: NONE, Method: STANDARD PLATE
[2] = Test System: AMES SALMONELLA TYPHIMURIUM, Strain/Indicator: TA98, Metabolic Activation: RAT, LIVER, S-9, AROCLOR 1254, Method: STANDARD PLATE
[3] = Test System: AMES SALMONELLA TYPHIMURIUM, Strain/Indicator: TA100, Metabolic Activation: NONE, Method: STANDARD PLATE
[4] = Test System: AMES SALMONELLA TYPHIMURIUM, Strain/Indicator: TA100, Metabolic Activation: RAT, LIVER, S-9, AROCLOR 1254, Method: STANDARD PLATE

Measured: mutagenic call

CCC(CCC(C)O)COC(=O)CCCCC(=O)O (centres undefined)
inactive: Test System: AMES SALMONELLA TYPHIMURIUM, Strain/Indicator: TA97, Metabolic Activation: NONE, Method: STANDARD PLATE inactive; negative | Test System: AMES SALMONELLA TYPHIMURIUM, Strain/Indicator: TA97, Metabolic Activation: RAT, LIVER, S-9, AROCLOR 1254, Method: STANDARD PLATE inactive; negative | Test System: AMES SALMONELLA TYPHIMURIUM, Strain/Indicator: TA97, Metabolic Activation: RAT, LIVER, S-9, DI(2-ETHYLHEXYL)PHTHALATE, Method: STANDARD PLATE inactive; negative | [1] inactive; negative | [2] inactive; negative | Test System: AMES SALMONELLA TYPHIMURIUM, Strain/Indicator: TA98, Metabolic Activation: RAT, LIVER, S-9, DI(2-ETHYLHEXYL)PHTHALATE, Method: STANDARD PLATE inactive; negative | [3] inactive; negative | [4] inactive; negative | Test System: AMES SALMONELLA TYPHIMURIUM, Strain/Indicator: TA100, Metabolic Activation: RAT, LIVER, S-9, DI(2-ETHYLHEXYL)PHTHALATE, Method: STANDARD PLATE inactive; negative | Test System: AMES SALMONELLA TYPHIMURIUM, Strain/Indicator: TA102, Metabolic Activation: NONE, Method: STANDARD PLATE inactive; negative | Test System: AMES SALMONELLA TYPHIMURIUM, Strain/Indicator: TA102, Metabolic Activation: RAT, LIVER, S-9, AROCLOR 1254, Method: STANDARD PLATE inactive; negative | Test System: AMES SALMONELLA TYPHIMURIUM, Strain/Indicator: TA102, Metabolic Activation: RAT, LIVER, S-9, DI(2-ETHYLHEXYL)PHTHALATE, Method: STANDARD PLATE inactive; negative

CC(=O)C1(c2ccccc2)CCNCC1
inactive: Test System: AMES SALMONELLA TYPHIMURIUM, Strain/Indicator: TA98, Metabolic Activation: HAMSTER, LIVER, S-9, AROCLOR 1254, Method: STANDARD PLATE inactive; negative | [1] inactive; negative | [2] inactive; negative | Test System: AMES SALMONELLA TYPHIMURIUM, Strain/Indicator: TA100, Metabolic Activation: HAMSTER, LIVER, S-9, AROCLOR 1254, Method: STANDARD PLATE inactive; negative | [3] inactive; negative | [4] inactive; negative | Test System: AMES SALMONELLA TYPHIMURIUM, Strain/Indicator: TA1535, Metabolic Activation: HAMSTER, LIVER, S-9, AROCLOR 1254, Method: STANDARD PLATE inactive; negative | Test System: AMES SALMONELLA TYPHIMURIUM, Strain/Indicator: TA1535, Metabolic Activation: NONE, Method: STANDARD PLATE inactive; negative | Test System: AMES SALMONELLA TYPHIMURIUM, Strain/Indicator: TA1535, Metabolic Activation: RAT, LIVER, S-9, AROCLOR 1254, Method: STANDARD PLATE inactive; negative | Test System: AMES SALMONELLA TYPHIMURIUM, Strain/Indicator: TA1537, Metabolic Activation: HAMSTER, LIVER, S-9, AROCLOR 1254, Method: STANDARD PLATE inactive; negative | Test System: AMES SALMONELLA TYPHIMURIUM, Strain/Indicator: TA1537, Metabolic Activation: NONE, Method: STANDARD PLATE inactive; negative | Test System: AMES SALMONELLA TYPHIMURIUM, Strain/Indicator: TA1537, Metabolic Activation: RAT, LIVER, S-9, AROCLOR 1254, Method: STANDARD PLATE inactive; negative | Test System: AMES SALMONELLA TYPHIMURIUM, Strain/Indicator: TA1538, Metabolic Activation: HAMSTER, LIVER, S-9, AROCLOR 1254, Method: STANDARD PLATE inactive; negative | Test System: AMES SALMONELLA TYPHIMURIUM, Strain/Indicator: TA1538, Metabolic Activation: NONE, Method: STANDARD PLATE inactive; negative | Test System: AMES SALMONELLA TYPHIMURIUM, Strain/Indicator: TA1538, Metabolic Activation: RAT, LIVER, S-9, AROCLOR 1254, Method: STANDARD PLATE inactive; negative | Test System: MOUSE LYMPHOMA, Strain/Indicator: L5178Y (TK+/TK-), Metabolic Activation: NONE, Method: SUSPENSION/PLATE inactive; negative. reevaluation of results: negative | Test System: MOUSE LYMPHOMA, Strain/Indicator: L5178Y (TK+/TK-), Metabolic Activation: RAT, LIVER, S-9, AROCLOR 1254, Method: SUSPENSION/PLATE inactive; negative. reevaluation of results: inconclusive

COc1ccc2c(c1)-c1c(OC)c(OC)cc3c1C(C2=O)N(C)CC3 (centres undefined)
inactive: Test System: AMES SALMONELLA TYPHIMURIUM, Strain/Indicator: TA100, Metabolic Activation: RAT, LIVER, S-9, PHENOBARBITAL AND BETA-NAPHTHOFLAVONE, Method: PREINCUBATION inactive; negative

C#CCc1ccc(COC(=O)C2C(C=C(C)C)C2(C)C)o1 (centres undefined)
active: Test System: AMES SALMONELLA TYPHIMURIUM, Strain/Indicator: TA100 active; positive
inactive: Test System: AMES SALMONELLA TYPHIMURIUM, Strain/Indicator: TA98 inactive; negative | Test System: AMES SALMONELLA TYPHIMURIUM, Strain/Indicator: TA98, Metabolic Activation: NONE inactive; negative | Test System: AMES SALMONELLA TYPHIMURIUM, Strain/Indicator: TA100, Metabolic Activation: NONE inactive; negative

CCC[C@@H]1C[C@@H](C(=O)N[C@@H]([C@H]2O[C@H](SC)[C@H](O)[C@@H](O)[C@H]2O)[C@@H](C)O)N(C)C1
active: End Point: AMES SALMONELLA TYPHIMURIUM, Test System: TA98, Metabolic Activation: NONE, Method: STANDARD PLATE active; positive | End Point: AMES SALMONELLA TYPHIMURIUM, Test System: TA100, Metabolic Activation: NONE, Method: STANDARD PLATE active; positive

Cc1ccc2cc3c(ccc4ccccc43)c3c2c1CC3O (centres undefined)
active: Test System: CHINESE HAMSTER V-79, Strain/Indicator: V-79/8-AZAGUANINE, Metabolic Activation: RAT, LIVER, S-9, AROCLOR 1254, Method: STANDARD PLATE active; positive

C=C(C)/C([O-])=N/[N+](C)(C)CC(C)O (centres undefined)
inactive: Test System: AMES SALMONELLA TYPHIMURIUM, Strain/Indicator: TA97, Metabolic Activation: HAMSTER, LIVER, S-9, AROCLOR 1254 (10 OR 30%), Method: PREINCUBATION inactive; negative | Test System: AMES SALMONELLA TYPHIMURIUM, Strain/Indicator: TA97, Metabolic Activation: NONE, Method: PREINCUBATION inactive; negative | Test System: AMES SALMONELLA TYPHIMURIUM, Strain/Indicator: TA97, Metabolic Activation: RAT, LIVER, S-9, AROCLOR 1254 (10 OR 30%), Method: PREINCUBATION inactive; negative | Test System: AMES SALMONELLA TYPHIMURIUM, Strain/Indicator: TA98, Metabolic Activation: HAMSTER, LIVER, S-9, AROCLOR 1254 (10 OR 30%), Method: PREINCUBATION inactive; negative | Test System: AMES SALMONELLA TYPHIMURIUM, Strain/Indicator: TA98, Metabolic Activation: NONE, Method: PREINCUBATION inactive; negative | Test System: AMES SALMONELLA TYPHIMURIUM, Strain/Indicator: TA98, Metabolic Activation: RAT, LIVER, S-9, AROCLOR 1254 (10 OR 30%), Method: PREINCUBATION inactive; negative | Test System: AMES SALMONELLA TYPHIMURIUM, Strain/Indicator: TA100, Metabolic Activation: HAMSTER, LIVER, S-9, AROCLOR 1254 (10 OR 30%), Method: PREINCUBATION inactive; negative | Test System: AMES SALMONELLA TYPHIMURIUM, Strain/Indicator: TA100, Metabolic Activation: NONE, Method: PREINCUBATION inactive; negative | Test System: AMES SALMONELLA TYPHIMURIUM, Strain/Indicator: TA100, Metabolic Activation: RAT, LIVER, S-9, AROCLOR 1254 (10 OR 30%), Method: PREINCUBATION inactive; negative | Test System: AMES SALMONELLA TYPHIMURIUM, Strain/Indicator: TA1535, Metabolic Activation: HAMSTER, LIVER, S-9, AROCLOR 1254 (10 OR 30%), Method: PREINCUBATION inactive; negative | Test System: AMES SALMONELLA TYPHIMURIUM, Strain/Indicator: TA1535, Metabolic Activation: NONE, Method: PREINCUBATION inactive; negative | Test System: AMES SALMONELLA TYPHIMURIUM, Strain/Indicator: TA1535, Metabolic Activation: RAT, LIVER, S-9, AROCLOR 1254 (10 OR 30%), Method: PREINCUBATION inactive; negative
